# Data as given in publication PMC8587151, “Dibenzofuran Derivatives Inspired from Cercosporamide as Dual Inhibitors of Pim and CLK1 Kinases” (Molecules, 2021).
# Several values for one entry are separate records, joined by “and”; a condition that tells them apart may be missing. Equal values may be shown once. Read-outs that look alike come from different tables or passages of the source.
# Tests used:
# Pim-2 = settings: Figure 1; cited from earlier work
# Pim-1 = settings: Figure 1; cited from earlier work
# HsPim-2 = target: T1, HsPim-2 (Homo sapiens, UniProt Q9P1W9); test: Kinase assay, luminescent ADP-Glo, 10 µM ATP; type: biochemical; settings: mean of n ≥ 3, read-out: IC50 Pim-2
# T1 construct: made in house; host or cells: Escherichia coli BL21 DE3 pLysS
# T1 sequence (Q9P1W9 whole entry): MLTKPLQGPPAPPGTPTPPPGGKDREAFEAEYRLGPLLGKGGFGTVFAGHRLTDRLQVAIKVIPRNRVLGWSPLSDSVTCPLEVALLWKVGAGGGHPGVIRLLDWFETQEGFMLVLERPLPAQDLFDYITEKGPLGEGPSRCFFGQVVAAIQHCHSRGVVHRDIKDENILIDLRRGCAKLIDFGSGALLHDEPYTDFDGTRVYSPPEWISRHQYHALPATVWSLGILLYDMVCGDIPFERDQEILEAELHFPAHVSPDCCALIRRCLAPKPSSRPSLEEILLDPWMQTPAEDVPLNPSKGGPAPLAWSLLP
# Procedure: (§1) The synthesized compounds were tested using a luminescence-based assay against a panel of nine kinases: Pim-1, Pim-2, CDK5/p25, CDK9/CyclinT, Haspin, CK1ε, and GSK3β (from human); DYRK1A (from Rattus norvegicus); and CLK1 (from Mus musculus).
# (§2) Kinase enzymatic activities were assayed with 10 µM ATP in 384-well plates using the luminescent ADP-Glo^TM assay (Promega, Madison, WI, USA) according to the recommendations of the manufacturer (see [56] for details on this method). The transmitted signal was measured using the Envision (PerkinElmer, Waltham, MA, USA) microplate luminometer and expressed in relative light unit (RLU). In order to determine the half maximal inhibitory concentration (IC50), the assays were performed in duplicate in the absence or presence of increasing doses of the tested compounds. GraphPad Prism6 software (GraphPad Software, San Diego, CA, USA) was used to fit dose–response curves and to determine the IC50 values. Kinase activities are expressed in % of maximal activity, i.e., measured in the absence of inhibitor. Peptide substrates were obtained from Proteogenix (Schiltigheim, France).
# (§3) For kinases expressed in bacteria, the Escherichia coli BL21 DE3 pLysS strain (Invitrogen, ThermoFisher Scientific, Waltham, MA, USA) was transformed with pGEX-2T-1 (Sigma-Aldrich, St. Louis, MO, USA) containing the coding region of the corresponding kinase. For kinases expressed in Sf9 insect cells, the coding region of the corresponding kinase was cloned in pFastBac^TM vector. Purification of the recombinant kinases was performed following the protocol “Bac-to-Bac® Baculovirus Expression System” provided by the manufacturer (Invitrogen, ThermoFisher Scientific, Waltham, MA, USA).
# (§4) To validate the kinase assay, model inhibitors were used for each tested enzyme: Staurosporine from Streptomyces sp. (#S5921, purity ≥ 95%, Sigma-Aldrich) for HsCK1ε; Indirubin-30-oxime (#I0404, purity ≥ 98%, Sigma-Aldrich) for HsGSK-3β, HsPim-1 and 2, human cyclin-dependent kinases, RnDYRK1A and MmCLK1; CHR-6494 (#SML0648, purity ≥ 98%, Sigma-Aldrich) for Haspin.
# HsPim-1 = target: T2, HsPim-1 (Homo sapiens, UniProt P11309); test: Kinase assay, luminescent ADP-Glo, 10 µM ATP; type: biochemical
# T2 construct: made in house; host or cells: Escherichia coli BL21 DE3 pLysS
# T2 sequence (P11309 whole entry): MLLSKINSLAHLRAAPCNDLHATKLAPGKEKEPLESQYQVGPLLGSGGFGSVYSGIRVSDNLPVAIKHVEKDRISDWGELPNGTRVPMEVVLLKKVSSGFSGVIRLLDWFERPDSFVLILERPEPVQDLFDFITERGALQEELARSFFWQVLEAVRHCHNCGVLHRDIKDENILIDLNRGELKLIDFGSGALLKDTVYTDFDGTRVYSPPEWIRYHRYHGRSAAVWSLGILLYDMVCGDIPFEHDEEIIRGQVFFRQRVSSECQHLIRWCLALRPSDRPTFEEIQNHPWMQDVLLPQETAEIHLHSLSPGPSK
# Procedure: as §1, §2, §3, §4
# MmCLK1 = target: T3, MmCLK1 (Mus musculus, UniProt P22518); test: Kinase assay, luminescent ADP-Glo, 10 µM ATP; type: biochemical; settings: for IC50: ADP-Glo, 10 µM ATP, duplicate, read-out: Kinase Enzymatic IC50 CLK1
# T3 construct: made in house; host or cells: Escherichia coli BL21 DE3 pLysS
# T3 sequence (P22518 whole entry): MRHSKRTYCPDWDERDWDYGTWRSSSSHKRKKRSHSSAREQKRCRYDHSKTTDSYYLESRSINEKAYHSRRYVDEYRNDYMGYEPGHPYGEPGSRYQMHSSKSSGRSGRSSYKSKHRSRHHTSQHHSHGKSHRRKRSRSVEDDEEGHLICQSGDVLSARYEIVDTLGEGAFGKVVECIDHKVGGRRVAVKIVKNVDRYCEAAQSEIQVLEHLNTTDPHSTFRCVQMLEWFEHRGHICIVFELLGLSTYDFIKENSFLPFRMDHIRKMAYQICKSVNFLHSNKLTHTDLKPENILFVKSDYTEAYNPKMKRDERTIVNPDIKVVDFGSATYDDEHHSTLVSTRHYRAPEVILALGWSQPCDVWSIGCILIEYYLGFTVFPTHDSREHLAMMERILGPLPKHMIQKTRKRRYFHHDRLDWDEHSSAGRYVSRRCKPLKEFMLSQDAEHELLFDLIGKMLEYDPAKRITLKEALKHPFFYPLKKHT
# Procedure: as §1, §2, §3, §4
# HsCDK9/CyclinT = target: T4, HsCDK9/CyclinT (Homo sapiens, UniProt P50750); test: Kinase assay, luminescent ADP-Glo, 10 µM ATP; type: biochemical; settings: duplicate, read-out: Kinase Enzymatic IC50 CDK9/CyclinT
# T4 construct: made in house; host or cells: Sf9 insect cells (baculovirus, pFastBac)
# T4 sequence (P50750 whole entry): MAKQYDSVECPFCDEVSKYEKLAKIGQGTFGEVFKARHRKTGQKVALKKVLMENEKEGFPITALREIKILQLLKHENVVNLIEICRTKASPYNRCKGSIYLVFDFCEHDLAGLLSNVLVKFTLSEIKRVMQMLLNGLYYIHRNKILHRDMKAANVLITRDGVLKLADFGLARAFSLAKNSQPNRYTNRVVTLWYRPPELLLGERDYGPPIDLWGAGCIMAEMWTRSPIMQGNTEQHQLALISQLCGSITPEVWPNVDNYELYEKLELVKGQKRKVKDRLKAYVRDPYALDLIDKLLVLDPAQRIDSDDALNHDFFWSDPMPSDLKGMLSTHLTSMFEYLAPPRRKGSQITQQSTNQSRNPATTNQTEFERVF
# T4 sequence (O60563 whole entry partner): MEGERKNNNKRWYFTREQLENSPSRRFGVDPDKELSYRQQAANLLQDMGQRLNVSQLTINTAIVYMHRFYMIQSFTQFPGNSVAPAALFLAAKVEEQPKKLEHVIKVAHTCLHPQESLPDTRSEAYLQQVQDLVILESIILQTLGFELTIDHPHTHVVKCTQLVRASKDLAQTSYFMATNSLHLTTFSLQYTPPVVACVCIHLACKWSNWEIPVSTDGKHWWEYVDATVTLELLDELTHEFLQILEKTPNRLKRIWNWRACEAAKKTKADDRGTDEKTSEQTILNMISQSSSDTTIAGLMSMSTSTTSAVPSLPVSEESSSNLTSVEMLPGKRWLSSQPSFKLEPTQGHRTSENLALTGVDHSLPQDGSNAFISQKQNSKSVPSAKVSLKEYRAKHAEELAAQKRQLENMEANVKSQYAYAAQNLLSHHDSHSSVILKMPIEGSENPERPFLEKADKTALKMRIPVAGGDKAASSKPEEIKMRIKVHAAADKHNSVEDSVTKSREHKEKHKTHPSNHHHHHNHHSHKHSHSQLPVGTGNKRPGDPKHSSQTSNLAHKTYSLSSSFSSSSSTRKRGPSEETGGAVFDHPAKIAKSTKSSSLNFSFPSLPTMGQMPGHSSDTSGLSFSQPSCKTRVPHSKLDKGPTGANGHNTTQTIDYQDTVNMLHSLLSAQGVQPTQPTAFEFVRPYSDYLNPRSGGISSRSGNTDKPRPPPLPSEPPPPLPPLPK
# Procedure: as §1, §2, §3, §4
# HsCDK5/p25 = target: T5, HsCDK5/p25 (Homo sapiens, UniProt Q00535); test: Kinase assay, luminescent ADP-Glo, 10 µM ATP; type: biochemical; settings: duplicate, read-out: Kinase Enzymatic IC50 CDK5/p25
# T5 construct: made in house; host or cells: Escherichia coli BL21 DE3 pLysS
# T5 sequence (Q00535 whole entry): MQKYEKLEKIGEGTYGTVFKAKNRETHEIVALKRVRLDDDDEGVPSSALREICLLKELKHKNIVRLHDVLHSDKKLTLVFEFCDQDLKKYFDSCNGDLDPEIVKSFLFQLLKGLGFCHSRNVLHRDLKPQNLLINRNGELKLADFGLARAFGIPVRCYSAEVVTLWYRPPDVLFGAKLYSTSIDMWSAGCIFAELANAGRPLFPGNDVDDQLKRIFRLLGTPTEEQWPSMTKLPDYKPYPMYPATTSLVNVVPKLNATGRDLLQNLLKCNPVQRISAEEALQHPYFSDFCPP
# T5 sequence (Q15078 99-307 partner limits assumed): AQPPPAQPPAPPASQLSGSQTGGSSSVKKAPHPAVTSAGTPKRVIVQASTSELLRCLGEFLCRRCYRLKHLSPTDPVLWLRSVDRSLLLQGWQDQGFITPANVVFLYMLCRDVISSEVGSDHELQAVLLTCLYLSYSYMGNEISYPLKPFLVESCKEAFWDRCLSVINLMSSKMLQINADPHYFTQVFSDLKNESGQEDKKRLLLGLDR
# Procedure: as §1, §2, §3, §4
# CaPkc1 = tested on: CaPkc1; design: method as in PMID 20865172; settings: ATP-competitive; cited from earlier work
# KU812 cells = test: MTT cell proliferation assay; type: cell-based; settings: Homo sapiens, 48 h, mean ± SEM
# From the text: (§5) Various types of hematological malignancies were selected for in vitro testing: the human acute myeloid leukemia (AML) cell line MV4-11, and the human chronic myeloid leukemia (CML) cell lines KU812 and K562. Indeed, Pim kinases are overexpressed in a wide range of hematopoietic malignancies. Solid tumors were also included in the panel of tested cell lines: MCF-7 (human breast adenocarcinoma), HT-29 (human colon adenocarcinoma), and HeLa (human cervical cancer) cells. Cytotoxic effects were evaluated using an MTT assay, and living cells were also counted with the trypan blue dye exclusion method for MV4-11, KU812, and K562 cells.
# (§6) MV4-11, K562, and KU812 cell lines were obtained from the Deutshe Sammlung von Mikroorganismens und Zellkulturen (DSMZ) and maintained according to the supplier’s recommendations. All cell lines were cultured in RPMI, with 10% fetal bovine serum, 1% glutamine, and 1% penicillin/ streptomycin at 37 °C and 5% CO2.
# (§7) MV4-11, K562, and KU812 cells’ viability was studied using a MTT cell proliferation assay.
# (§8) MV4-11, K562, and KU812 cells were incubated with 10 μL of MTT working solution (5 g/L of methylthiazolyldiphenyl-tetrazolium bromide from Sigma Aldrich, Lyon, France) for 4 h. Cells were then lysed overnight at 37 °C with 100 μL of 10% SDS and 0.003% HCl. Optical density (OD) at 570 nm was measured using a spectrophotometer CLARIOstar® (BMG Labtech, Offenburg, Germany). Living cells were also counted with the trypan blue dye exclusion method. […] Data were collected from at least three independent experiments and the values reported are means ± standard errors of the mean (SEM).
# K562 cells = test: MTT cell proliferation assay; type: cell-based; settings: Homo sapiens, 48 h, mean ± SEM
# From the text: as §5, §6, §7, §8
# HT-29 cells = test: MTT cytotoxicity assay; type: cell-based; settings: Homo sapiens, 72 h
# From the text: as §5
# (§9) The cancer cell lines MCF-7, HT-29, and HeLa were obtained from Cell Bank of Rio de Janeiro, Brazil, and were grown in RPMI-1640 medium and L929 cells were grown in Dulbecco’s Modified Eagle’s Medium (DMEM). Both media were supplemented with fetal bovine serum (FBS) (10% of the final concentration) followed by treatment with penicillin and streptomycin as antibiotics (1% of the final concentration). The crude was incubated in the presence of CO2 atmosphere (5%) for 24 h with the temperature monitored and maintained at 37 °C.
# (§10) MCF-7, HT-29, HeLa, and L929 cells (3×10^5 cells/mL) were plated in 96-well plates and incubated in the presence of CO2 atmosphere (5%) for 24 h at 37 °C. […] Then, 25 μL of MTT (5 mg/mL in PBS) were added to each well and the plates were left for another 3 h in the incubator at 37 °C and at the end of this period, the supernatant was aspirated. To perform the reading, 100 μL of dimethylsulfoxide (DMSO) were added in each well for the dissolution of the formazan crystals. The amount of formazan was measured by reading the plate at 560 nm absorbance. […] Each sample was tested in triplicate in two independent experiments.
# MCF-7 cells = test: MTT cytotoxicity assay; type: cell-based; settings: Homo sapiens, MCF7, 72 h
# From the text: as §5, §9, §10
# HeLa cells = test: MTT cytotoxicity assay; type: cell-based; settings: Homo sapiens, 72 h
# From the text: as §5, §9, §10
# MV4-11 cells = test: MTT cell proliferation assay; type: cell-based, human; settings: Homo sapiens, MV4-11, 48 h, mean ± SEM
# From the text: as §5, §6, §7, §8
# RnDYRK1A-kd = RnDYRK1A-kd (Rattus norvegicus, UniProt Q63470); test: Kinase assay, luminescent ADP-Glo, 10 µM ATP; type: biochemical; settings: read-out: IC50 DYRK1A
# Procedure: as §1, §2, §3, §4
# L929 cells = test: MTT assay, in vitro toxicity on normal cells; type: cell-based; settings: 72 h, normal mouse fibroblasts
# From the text: as §5, §9, §10
# HsCK1ε = target: T6, HsCK1ε (Homo sapiens, UniProt P49674); test: Kinase assay, luminescent ADP-Glo, 10 µM ATP; type: biochemical; settings: read-out: IC50 CK1
# T6 construct: made in house; host or cells: Sf9 insect cells (baculovirus, pFastBac)
# T6 sequence (P49674 whole entry): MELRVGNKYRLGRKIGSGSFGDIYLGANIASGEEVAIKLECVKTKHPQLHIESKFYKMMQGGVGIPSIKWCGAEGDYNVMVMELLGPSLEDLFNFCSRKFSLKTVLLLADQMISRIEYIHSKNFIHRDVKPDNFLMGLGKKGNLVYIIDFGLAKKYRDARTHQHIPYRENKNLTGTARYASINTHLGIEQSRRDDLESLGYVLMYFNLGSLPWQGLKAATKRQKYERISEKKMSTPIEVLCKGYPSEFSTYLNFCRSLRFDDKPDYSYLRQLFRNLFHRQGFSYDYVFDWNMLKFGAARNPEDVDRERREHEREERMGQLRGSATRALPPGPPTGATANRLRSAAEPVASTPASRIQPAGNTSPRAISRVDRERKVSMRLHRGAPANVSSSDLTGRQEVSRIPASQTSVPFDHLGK
# Procedure: as §1, §2, §3, §4
# [1] = Table 1, ADP-Glo, 10 µM ATP, duplicate, read-out: Kinase Enzymatic IC50 Pim-1
# [2] = Table 2, ADP-Glo, 10 µM ATP, mean of n ≥ 3, read-out: IC50 Pim-1
Structure (SMILES),IC50 (HsPim-2),IC50 (HsPim-1; [1]),IC50 (HsPim-1; [2]),IC50 (MmCLK1),IC50 (HsCDK9/CyclinT),IC50 (HsCDK5/p25),IC50 (KU812 cells),IC50 (K562 cells),IC50 (MCF-7 cells),IC50 (HeLa cells),IC50 (MV4-11 cells),IC50 (RnDYRK1A-kd),melting point,IC50 (L929 cells),also measured
CC(=O)C1=C(O)C=C2Oc3c(C(C)=O)c(O)c(C)c(O)c3[C@@]2(C)C1=O [(+)-Usnic acid],,,,,,,,,,,,,,,IC50 (Pim-2): 0.58 µM; IC50 (Pim-1): 0.21 µM
"CC(=O)C1=C(O)C=C2Oc3c(C(N)=O)c(O)cc(O)c3[C@]2(C)C1=O [Cerco, Cercosporamide]",1.43 µM,0.73 µM,0.73 µM,> 10 µM,0.22 µM,5.6 µM,> 100 µM,> 100 µM,44.3 ± 2.1 µM,7.5 ± 3.1 µM,31.5 ± 4.7 µM,,,,"IC50 (HsPim-1; printed in Figure 1, no reference given, read-out: Pim-1 IC50 (Figure 1)): 0.732 µM; IC50 (CaPkc1): 0.044 µM; IC50 (HT-29 cells): 10.4 µM"
"COc1cc(OC)c2c(oc3ccc(F)cc32)c1C(N)=O [Compound 41, 8-Fluoro-1,3-dimethoxydibenzo[b,d]furan-4-carboxamide]",,> 10 µM,,,,,,,,,,1.33 µM,230 to 231 °C,,
"NC(=O)c1c(O)cc(O)c2c1oc1cc(O)ccc12 [Compound 44, 1,3,7-Trihydroxydibenzo[b,d]furan-4-carboxamide]",0.035 µM,0.06 µM,0.06 µM,0.026 µM,> 10 µM,> 10 µM,42.1 ± 1.3 µM,75.7 ± 11.8 µM,52.5 ± 1.2 µM,10.2 ± 1.2 µM,2.6 ± 0.4 µM,,,28.4 ± 1.1 µM,
"CC(=O)c1ccc2oc3c(C(N)=O)c(O)cc(O)c3c2c1 [Compound 45, 8-Acetyl-1,3-dihydroxydibenzo[b,d]furan-4-carboxamide]",0.12 µM,0.28 µM,0.28 µM,0.14 µM,> 10 µM,> 10 µM,69.4 ± 12.9 µM,> 100 µM,> 100 µM,59.6 ± 7.6 µM,8.8 ± 0.9 µM,,,> 100 µM,fold less active than 44 against CLK1 (MmCLK1; ratio of IC50 values): 5 fold
"NC(=O)c1c(O)cc(O)c2c1oc1ccc(F)cc12 [Compound 46, 8-Fluoro-1,3-dihydroxydibenzo[b,d]furan-4-carboxamide]",,> 1 µM and 1.2 µM,1.2 µM,,0.92 µM,,> 100 µM,> 100 µM,,,16.1 ± 1.6 µM,0.69 µM,342 to 343 °C,,IC50 (HsCK1ε): 0.68 µM
